# According to US6737383B1, “Herbicidal oxadiazolidines” (priority 1999, dated 2004):
# How the values were obtained:
# [1] = test system: morningglory; test: Test B pre/postemergence morningglory; format: in vivo, Ipomoea hederacea; details: for Morningglory plant response rating (0 to 10 scale): 0 is no effect
# How it was run: (§1)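 Response is a visual 0-to-10 score relative to untreated plants, where 0 means no effect and 10 means complete control, taken twelve to sixteen days after application. Treatments went onto soil at planting and onto foliage of 1- to 4-leaf plants, using a surfactant-containing non-phytotoxic solvent.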
# [2] = test system: pigweed; test: Test B pre/postemergence pigweed; format: in vivo, Amaranthus retroflexus; details: for Redroot pigweed plant response rating (0 to 10 scale): 0 is no effect
# How it was run: as §1
# [3] = test system: wild oat; test: Test B pre/postemergence wild oat; format: in vivo, Avena fatua
# How it was run: as §1
# [4] = Postemergence, Rate 250 g/ha, scale 0 to 10
# [5] = Postemergence, Rate 500 g/ha, scale of 0 to 10 where 0 is no effect and 10 is complete control
# [6] = Preemergence, Rate 62 g/ha, scale 0 to 10 (0 no effect, 10 complete control)
# [7] = Preemergence, Rate 125 g/ha, scale of 0 to 10 where 0 is no effect and 10 is complete control
# [8] = Preemergence, Rate 250 g/ha, scale 0 to 10, 0 is no effect, 10 is complete control
# [9] = Preemergence, Rate 500 g/ha, scale 0 to 10, 0 is no effect, 10 is complete control
# [10] = Rate 125 g/ha, Postemergence, scale 0 to 10, 0 is no effect, 10 is complete control
# [11] = Postemergence, Rate 62 g/ha, scale 0 to 10, 0 is no effect, 10 is complete control
# [12] = Postemergence, Rate 250 g/ha, scale 0 to 10, 0 no effect, 10 complete control
# [13] = Preemergence, Rate 62 g/ha, scale 0 to 10, 0 is no effect, 10 is complete control
# [14] = Preemergence, Rate 125 g/ha, scale 0 to 10 (0 no effect, 10 complete control)
# [15] = Preemergence, Rate 250 g/ha, scale of 0 to 10 where 0 is no effect and 10 is complete control
# [16] = Preemergence, Rate 500 g/ha, scale 0 (no effect) to 10 (complete control)
# [17] = Rate 125 g/ha, Postemergence, scale 0 to 10, 0 no effect, 10 complete control
# [18] = Rate 500 g/ha, Postemergence, 0 to 10 scale (0 no effect, 10 complete control)
# [19] = Postemergence, Rate 125 g/ha, scale of 0 to 10 where 0 is no effect and 10 is complete control
# [20] = Preemergence, Rate 125 g/ha, 10 is complete control
# [21] = Preemergence, Rate 500 g/ha, scale 0 to 10 (0 no effect, 10 complete control)
# [22] = Rate 62 g/ha, Postemergence, scale of 0 to 10 where 0 is no effect and 10 is complete control
# [23] = Rate 250 g/ha, Postemergence, scale 0 to 10, 0 is no effect, 10 is complete control
# [24] = Rate 500 g/ha, Postemergence, scale 0 to 10
# [25] = Preemergence, Rate 31 g/ha, visual rating, scale 0 to 10 (0 no effect, 10 complete control)
# [26] = Preemergence, Rate 62 g/ha, scale of 0 to 10 where 0 is no effect and 10 is complete control
# [27] = Rate 31 g/ha, Postemergence, scale 0 to 10
# [28] = Rate 125 g/ha, Postemergence, scale 0 to 10
compound,measurement,setting,value
CC(C)N(C(=O)n1oc(=O)n(CC#N)c1=O)c1ccccc1 [Compound 434],Morningglory plant response rating,[1]; [4],1
same,Morningglory plant response rating,[1]; [5],1
same,"Plant response rating, Morningglory",[1]; [6],0
same,"Plant response rating, Morningglory",[1]; [7],0
same,Morningglory plant response rating,[1]; [8],0
same,Morningglory plant response rating,[1]; [9],0
same,Morningglory plant response rating,[1]; [10],0
same,Redroot pigweed plant response rating,[2]; [4],0
same,Redroot pigweed plant response rating,[2]; [5],0
same,"Plant response rating, Redroot pigweed",[2]; [6],0
same,"Plant response rating, Redroot pigweed",[2]; [7],0
same,Redroot pigweed plant response rating,[2]; [8],0
same,Redroot pigweed plant response rating,[2]; [9],4
same,Redroot pigweed plant response rating,[2]; [10],0
same,Wild oats plant response rating,[3]; [4],0
same,Wild oats plant response rating,[3]; [5],0
same,"Plant response rating, Wild oats",[3]; [6],0
same,"Plant response rating, Wild oats",[3]; [7],0
same,Wild oats plant response rating,[3]; [8],0
same,Wild oats plant response rating,[3]; [9],0
same,Wild oats plant response rating,[3]; [10],0
CC(C)N(C(=O)n1oc(=O)n(-c2c(Cl)cccc2Cl)c1=O)c1ccc(F)cc1 [Compound 19],Morningglory plant response rating,[1]; [11],0
same,Morningglory plant response rating,[1]; [12],0
same,"Plant response rating, Morningglory",[1]; [13],0
same,"Plant response rating, Morningglory",[1]; [14],0
same,"Plant response rating, Morningglory",[1]; [15],0
same,Morningglory plant response rating,[1]; [16],0
same,Morningglory plant response rating,[1]; [17],0
same,Morningglory plant response rating,[1]; [18],2
same,Redroot pigweed plant response rating,[2]; [11],0
same,Redroot pigweed plant response rating,[2]; [12],2
same,"Plant response rating, Redroot pigweed",[2]; [13],0
same,"Plant response rating, Redroot pigweed",[2]; [14],0
same,"Plant response rating, Redroot pigweed",[2]; [15],2
same,Redroot pigweed plant response rating,[2]; [17],0
same,Redroot pigweed plant response rating,[2]; [18],5
same,Wild oats plant response rating,[3]; [11],0
same,Wild oats plant response rating,[3]; [12],0
same,"Plant response rating, Wild oats",[3]; [14],0
same,"Plant response rating, Wild oats",[3]; [15],0
same,Wild oats plant response rating,[3]; [16],0
same,Wild oats plant response rating,[3]; [17],0
C=CCn1c(=O)on(C(=O)N(c2ccc(F)cc2)C2CC2)c1=O [Compound 154],Morningglory plant response rating,[1]; [19],0
same,Morningglory plant response rating,[1]; [6],0
same,Morningglory plant response rating (0 to 10 scale),[1]; [20],0
same,Morningglory plant response rating,[1]; [8],0
same,Morningglory plant response rating,[1]; [21],0
same,Morningglory plant response rating,[1]; [22],0
same,"Plant response rating, Morningglory",[1]; [23],1
same,Morningglory plant response rating,[1]; [24],2
same,Redroot pigweed plant response rating,[2]; [19],0
same,Redroot pigweed plant response rating,[2]; [6],6
same,Redroot pigweed plant response rating (0 to 10 scale),[2]; [20],7
same,Redroot pigweed plant response rating,[2]; [8],8
same,Redroot pigweed plant response rating,[2]; [21],9
same,Redroot pigweed plant response rating,[2]; [22],0
same,"Plant response rating, Redroot pigweed",[2]; [23],2
same,Redroot pigweed plant response rating,[2]; [24],6
same,Wild oats plant response rating,[3]; [6],0
same,Wild oats plant response rating (0 to 10 scale),"[3]; Preemergence, Rate 125 g/ha, 0 is no effect, 10 is complete control",0
same,Wild oats plant response rating,[3]; [8],4
same,Wild oats plant response rating,[3]; [21],5
same,Wild oats plant response rating,[3]; [22],0
same,"Plant response rating, Wild oats",[3]; [23],0
same,Wild oats plant response rating,[3]; [24],1
Cc1ccccc1-n1c(=O)on(C(=O)N(c2ccc(F)cc2)C2CCC2)c1=O [Compound 200],Morningglory plant response rating,[1]; [25],0
same,Morningglory plant response rating,[1]; [26],0
same,Morningglory plant response rating (0 to 10 scale),[1]; [20],0
same,Morningglory plant response rating,[1]; [8],0
same,Morningglory plant response rating,[1]; [27],0
same,Morningglory plant response rating,[1]; [22],0
same,Morningglory plant response rating,[1]; [28],0
same,"Plant response rating (0 to 10; 0 is no effect, 10 is complete control), Morningglory","[1]; Rate 250 g/ha, Postemergence",2
same,Redroot pigweed plant response rating,[2]; [25],0
same,Redroot pigweed plant response rating,[2]; [26],0
same,Redroot pigweed plant response rating (0 to 10 scale),[2]; [20],0
same,Redroot pigweed plant response rating,[2]; [8],0
same,Redroot pigweed plant response rating,[2]; [27],0
same,Redroot pigweed plant response rating,[2]; [22],0
same,Redroot pigweed plant response rating,[2]; [28],0
same,"Plant response rating (0 to 10; 0 is no effect, 10 is complete control), Redroot pigweed","[2]; Rate 250 g/ha, Postemergence",0
same,Wild oats plant response rating,[3]; [25],0
same,Wild oats plant response rating,[3]; [26],0
same,Wild oats plant response rating,[3]; [8],0
same,Wild oats plant response rating,[3]; [22],0
same,Wild oats plant response rating,[3]; [28],0
same,"Plant response rating (0 to 10; 0 is no effect, 10 is complete control), Wild oats","[3]; Rate 250 g/ha, Postemergence",0
